Measurements published in ChEMBL document CHEMBL1201862, “PubChem BioAssay data set” (2004).
The source made the active and inactive calls.

How the values were obtained:
Coagulation factor XII = biological target: T1, Coagulation factor XII (Homo sapiens, UniProt P00748); format: functional;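 note: activated factor XIIa alpha cleaving a fluorogenic AMC peptide substrate; inhibitor potency from loss of enzyme activity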
T1 sequence (P00748 whole entry): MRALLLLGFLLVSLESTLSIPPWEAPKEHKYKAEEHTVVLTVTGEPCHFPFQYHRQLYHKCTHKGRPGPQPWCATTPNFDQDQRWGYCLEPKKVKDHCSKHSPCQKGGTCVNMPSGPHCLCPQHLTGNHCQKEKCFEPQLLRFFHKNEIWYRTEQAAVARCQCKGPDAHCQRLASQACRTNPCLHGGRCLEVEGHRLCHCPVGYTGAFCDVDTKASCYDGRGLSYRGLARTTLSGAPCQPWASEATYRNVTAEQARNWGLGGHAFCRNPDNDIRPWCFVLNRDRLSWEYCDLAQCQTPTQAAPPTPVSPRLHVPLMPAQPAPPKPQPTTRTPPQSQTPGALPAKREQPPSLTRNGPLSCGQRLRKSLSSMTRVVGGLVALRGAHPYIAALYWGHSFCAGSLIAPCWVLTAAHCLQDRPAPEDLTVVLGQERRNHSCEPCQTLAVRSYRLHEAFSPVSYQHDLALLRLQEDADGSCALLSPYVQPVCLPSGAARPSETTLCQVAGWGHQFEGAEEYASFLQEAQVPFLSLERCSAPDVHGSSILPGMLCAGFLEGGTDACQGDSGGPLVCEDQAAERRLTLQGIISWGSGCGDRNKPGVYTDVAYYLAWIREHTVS

Fatty acid synthase [1] = biological target: T2, Fatty acid synthase (Homo sapiens, UniProt P49327); experiment: FAS thioesterase domain inhibitors, dose response, biochemical, endpoint fluorescence intensity, uHTS hits (AID 624327); format: functional;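 note: fluorescence from hydrolysis of an O-methyl fluorescein acyl ester substrate by the enzyme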
Fatty acid synthase [2] = biological target: T2, Fatty acid synthase; experiment: FAS thioesterase domain inhibitors, dose response, biochemical, kinetic fluorescence intensity (AID 624326); format: functional;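 note: rate of fluorescence rise from hydrolysis of a fluorogenic O-methyl fluorescein ester substrate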
HEK293 = experiment: inhibitors of LMP1-driven NF-kB reporter, dose response, cell-based, HEK293, luciferase, cherry-pick (AID 588343); format: functional; conditions: Homo sapiens
[3] = biological target: Luciferin 4-monooxygenase (Photinus pyralis, UniProt P08659); experiment: firefly luciferase enzyme inhibitors, dose response, biochemical, luminescence (AID 1891)
[4] = Luminescence Cell-Based Dose Confirmation HTS to Identify Inhibitors of Platelet Dense Granule Release. [Related pubchem assays: 1663 (Primary HTS), 1678 (Summary of Project)]; format: functional
[5] = inhibitors of firefly luciferase expression or activity, dose response, H4 neuroglioma cells, luminescence (AID 1990); format: functional, cell-based
[6] = Luminescence Cell-Based Dose Response HTS to Identify Inhibitors of 5'UTR Stem-Loop Driven Prion Protein mRNA Translation in H4 Neuroglioblastoma Cells. [Related pubchem assays: 1827 (Project Summary), 1813 (Primary HTS)]; format: functional
[7] = inhibitors of SNCA 5'UTR-driven reporter translation, confirmation, H4 neuroglioma cells, luminescence (AID 1988); format: functional, cell-based
Protein skinhead-1 = biological target: T3, Protein skinhead-1 (Caenorhabditis elegans, UniProt P34707); format: functional
T3 sequence (P34707 whole entry): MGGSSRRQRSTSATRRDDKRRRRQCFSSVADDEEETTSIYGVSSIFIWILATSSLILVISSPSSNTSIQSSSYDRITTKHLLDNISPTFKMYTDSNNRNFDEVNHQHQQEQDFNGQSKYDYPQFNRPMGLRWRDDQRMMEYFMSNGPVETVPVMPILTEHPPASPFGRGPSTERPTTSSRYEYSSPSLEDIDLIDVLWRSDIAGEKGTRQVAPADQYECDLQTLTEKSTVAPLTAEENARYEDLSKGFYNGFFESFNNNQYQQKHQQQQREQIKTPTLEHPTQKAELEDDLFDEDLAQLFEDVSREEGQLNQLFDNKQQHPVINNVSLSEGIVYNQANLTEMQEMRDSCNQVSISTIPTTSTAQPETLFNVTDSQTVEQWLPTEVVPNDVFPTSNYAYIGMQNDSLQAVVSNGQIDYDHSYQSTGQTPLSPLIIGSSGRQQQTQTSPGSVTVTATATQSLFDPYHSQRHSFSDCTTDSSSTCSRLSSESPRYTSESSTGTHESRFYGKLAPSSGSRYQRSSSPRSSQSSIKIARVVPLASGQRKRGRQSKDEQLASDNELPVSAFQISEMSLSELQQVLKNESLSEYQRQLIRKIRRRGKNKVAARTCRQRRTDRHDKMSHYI

[8] = LGR2 antagonists, dose response, cell-based, HEK293, CRE-luciferase reporter, cherry pick, set 2 (AID 743343); format: functional;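 note: transfected cells were stimulated with diluted bursicon conditioned medium after compound addition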
[9] = MC4R antagonists, dose response, counter-screen for LGR2 antagonist project, cell-based, plate reader, cherry pick (AID 743444); format: functional;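 note: transfected HEK 293 cells stimulated with alpha-MSH peptide; potency of inhibitors of the alpha-MSH evoked signal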
[10] = biological target: T4, Calpain-2 catalytic subunit (Sus scrofa, UniProt P43367); experiment: pig calpain II inhibitor potency, dose response, biochemical, fluorogenic peptide substrate (AID 1420); format: functional
T4 sequence (P43367 whole entry): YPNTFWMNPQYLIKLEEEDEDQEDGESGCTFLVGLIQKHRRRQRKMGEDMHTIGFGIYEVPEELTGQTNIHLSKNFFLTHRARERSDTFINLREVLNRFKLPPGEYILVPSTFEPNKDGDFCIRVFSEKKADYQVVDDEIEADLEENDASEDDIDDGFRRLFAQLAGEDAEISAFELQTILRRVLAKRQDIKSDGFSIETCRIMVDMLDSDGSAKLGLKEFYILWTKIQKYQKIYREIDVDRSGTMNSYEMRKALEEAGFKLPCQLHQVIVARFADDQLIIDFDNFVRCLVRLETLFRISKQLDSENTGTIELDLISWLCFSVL

T2 sequence (P49327 whole entry, the tested form may be a part): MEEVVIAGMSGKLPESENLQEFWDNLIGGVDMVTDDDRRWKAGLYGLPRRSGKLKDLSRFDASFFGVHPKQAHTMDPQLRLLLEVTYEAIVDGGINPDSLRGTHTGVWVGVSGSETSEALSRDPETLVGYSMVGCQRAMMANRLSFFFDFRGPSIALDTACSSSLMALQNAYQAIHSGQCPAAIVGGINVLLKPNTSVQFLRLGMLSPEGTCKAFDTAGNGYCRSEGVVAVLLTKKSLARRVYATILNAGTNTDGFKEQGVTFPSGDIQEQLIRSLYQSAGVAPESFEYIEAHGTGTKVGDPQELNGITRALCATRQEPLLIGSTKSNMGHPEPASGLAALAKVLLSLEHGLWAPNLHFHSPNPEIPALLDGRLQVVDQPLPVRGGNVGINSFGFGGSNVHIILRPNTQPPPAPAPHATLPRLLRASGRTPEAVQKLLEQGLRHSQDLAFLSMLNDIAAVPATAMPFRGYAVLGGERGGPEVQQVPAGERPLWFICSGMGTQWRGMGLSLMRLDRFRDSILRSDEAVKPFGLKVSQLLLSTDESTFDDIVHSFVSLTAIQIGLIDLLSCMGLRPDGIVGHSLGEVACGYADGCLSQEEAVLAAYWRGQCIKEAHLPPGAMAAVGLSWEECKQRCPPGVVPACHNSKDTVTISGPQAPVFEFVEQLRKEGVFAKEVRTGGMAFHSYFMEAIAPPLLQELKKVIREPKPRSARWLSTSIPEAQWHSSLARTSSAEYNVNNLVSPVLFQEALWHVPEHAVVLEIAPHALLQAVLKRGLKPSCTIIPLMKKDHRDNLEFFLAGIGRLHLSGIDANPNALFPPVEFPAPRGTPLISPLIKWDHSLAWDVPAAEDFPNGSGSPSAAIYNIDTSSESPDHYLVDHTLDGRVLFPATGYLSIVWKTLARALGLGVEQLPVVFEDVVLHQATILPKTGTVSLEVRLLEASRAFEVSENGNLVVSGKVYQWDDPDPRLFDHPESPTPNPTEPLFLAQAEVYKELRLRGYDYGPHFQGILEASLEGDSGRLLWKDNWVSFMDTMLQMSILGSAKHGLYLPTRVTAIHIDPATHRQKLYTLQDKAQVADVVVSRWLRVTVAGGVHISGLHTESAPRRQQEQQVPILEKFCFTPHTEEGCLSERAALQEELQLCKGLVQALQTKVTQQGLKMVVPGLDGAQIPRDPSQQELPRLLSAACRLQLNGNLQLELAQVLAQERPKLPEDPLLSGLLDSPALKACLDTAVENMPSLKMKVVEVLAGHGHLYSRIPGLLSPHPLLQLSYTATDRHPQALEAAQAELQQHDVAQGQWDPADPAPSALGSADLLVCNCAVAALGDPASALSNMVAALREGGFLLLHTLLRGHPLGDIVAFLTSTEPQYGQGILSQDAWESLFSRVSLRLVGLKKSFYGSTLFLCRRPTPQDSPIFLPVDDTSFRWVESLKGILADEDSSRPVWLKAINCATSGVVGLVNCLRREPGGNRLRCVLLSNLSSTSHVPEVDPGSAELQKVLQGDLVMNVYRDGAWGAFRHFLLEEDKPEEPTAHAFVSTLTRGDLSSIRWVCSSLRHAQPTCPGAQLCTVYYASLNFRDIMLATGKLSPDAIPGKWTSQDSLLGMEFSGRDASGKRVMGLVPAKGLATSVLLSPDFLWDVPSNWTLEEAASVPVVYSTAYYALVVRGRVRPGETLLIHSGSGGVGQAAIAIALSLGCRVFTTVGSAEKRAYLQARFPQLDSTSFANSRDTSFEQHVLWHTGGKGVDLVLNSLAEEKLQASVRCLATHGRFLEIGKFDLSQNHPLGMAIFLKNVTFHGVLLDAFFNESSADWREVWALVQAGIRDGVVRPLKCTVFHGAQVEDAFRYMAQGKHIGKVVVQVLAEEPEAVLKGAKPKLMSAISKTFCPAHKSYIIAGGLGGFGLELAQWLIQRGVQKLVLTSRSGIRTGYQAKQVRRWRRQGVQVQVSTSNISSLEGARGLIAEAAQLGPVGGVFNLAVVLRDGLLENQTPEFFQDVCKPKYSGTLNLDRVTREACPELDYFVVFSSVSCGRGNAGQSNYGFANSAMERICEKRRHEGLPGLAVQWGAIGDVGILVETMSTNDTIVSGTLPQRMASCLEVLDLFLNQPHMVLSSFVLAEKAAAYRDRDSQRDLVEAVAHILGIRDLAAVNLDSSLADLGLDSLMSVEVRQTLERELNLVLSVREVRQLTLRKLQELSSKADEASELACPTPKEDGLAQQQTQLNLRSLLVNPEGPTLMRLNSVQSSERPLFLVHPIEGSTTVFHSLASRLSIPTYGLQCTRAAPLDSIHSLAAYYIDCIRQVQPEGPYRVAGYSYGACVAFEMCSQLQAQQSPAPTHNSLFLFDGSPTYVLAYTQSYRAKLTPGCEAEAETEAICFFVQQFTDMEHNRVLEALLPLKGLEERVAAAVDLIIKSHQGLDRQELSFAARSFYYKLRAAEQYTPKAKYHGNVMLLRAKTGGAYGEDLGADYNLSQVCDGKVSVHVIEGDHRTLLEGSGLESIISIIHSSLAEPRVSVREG
Luciferin 4-monooxygenase, sequence (P08659 whole entry): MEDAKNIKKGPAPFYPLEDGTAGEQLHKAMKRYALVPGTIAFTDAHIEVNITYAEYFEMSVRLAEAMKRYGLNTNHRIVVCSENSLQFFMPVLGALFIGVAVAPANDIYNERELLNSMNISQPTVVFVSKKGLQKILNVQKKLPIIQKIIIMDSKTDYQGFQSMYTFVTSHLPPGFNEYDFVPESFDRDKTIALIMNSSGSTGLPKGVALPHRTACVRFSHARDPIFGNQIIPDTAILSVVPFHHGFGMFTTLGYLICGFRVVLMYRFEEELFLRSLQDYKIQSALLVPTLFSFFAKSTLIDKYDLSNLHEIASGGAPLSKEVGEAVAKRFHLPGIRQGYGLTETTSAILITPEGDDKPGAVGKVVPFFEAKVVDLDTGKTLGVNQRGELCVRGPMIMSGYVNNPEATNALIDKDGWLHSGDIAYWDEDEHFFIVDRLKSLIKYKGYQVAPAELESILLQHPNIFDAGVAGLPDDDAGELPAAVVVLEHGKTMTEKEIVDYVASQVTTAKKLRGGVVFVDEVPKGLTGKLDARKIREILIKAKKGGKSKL

Row | SMILES | IC50 (Coagulation factor XII) | IC50 (Fatty acid synthase [1]) | IC50 (Fatty acid synthase [2]) | also measured
1 | COC(=O)c1c(NC(=O)c2ccc(Br)s2)sc2c1CCC2 | 44.4 µM (active) |  |  | 
2 | O=C(CCNc1ccc(Br)cc1)c1cccc([N+](=O)[O-])c1 |  | 13.3 µM (active) | 7.64 µM (active) | 
3 | COc1ccc(C(=O)OC(C)C(=O)NC(C)CCc2ccccc2)cc1[N+](=O)[O-] (centres undefined) |  | 19.1 µM (active) | 17.9 µM (active) | 
4 | O=C(NCc1ccc2c3c(cccc13)C(=O)N2)c1cccs1 | > 50 µM (inactive) |  |  | 
5 | Cc1c(NC(=O)c2ccc(Br)o2)cccc1C(=O)O | > 50 µM (inactive) |  |  | 
6 | COc1ccc(Nc2oc(COc3ccc(Cl)cc3)nc2C#N)cc1 |  |  |  | AC50 (HEK293): 4.08 µM (active)
7 | Cc1ccccc1Cn1cnc2c(NS(C)(=O)=O)c(C)c(C)cc21 | > 50 µM (inactive) |  |  | 
8 | COC(=O)c1sc(NC(=O)c2ccc(OC)cc2OC)nc1C |  |  |  | EC50 [3]: 0.251 µM (active); EC50 [4]: 0.749 µM (active); AC50 (HEK293): 0.545 µM (active)
9 | COc1cc(SC)ccc1C(=O)Nc1ccc(Cl)cn1 |  |  |  | EC50 [5]: 4.03 µM (inconclusive); EC50 [6]: 1.33 µM (active); EC50 [7]: 0.497 µM (active); IC50 (Protein skinhead-1): > 100 µM (inactive); AC50 [8]: 1.59 µM (active); AC50 [9]: 1.45 µM (active)
10 | CCn1cc(C(=O)NCc2cccnc2)c(=O)c2cc(F)c(N3CCN(C(=O)c4ccco4)CC3)cc21 | > 50 µM (inactive) |  |  | 
11 | O=C(COC(=O)c1cc([N+](=O)[O-])ccc1N1CCOCC1)NCc1ccc(F)cc1 |  | 1.44 µM (active) | 1.33 µM (active) | 
12 | Cc1noc(C)c1CSc1nc2ccccc2c(=O)n1-c1ccc(F)cc1F | > 50 µM (inactive) |  |  | IC50 [10]: 4.76 µM (not active)
13 | Cc1c(Br)c([N+](=O)[O-])nn1CCCC(=O)N1CCN(c2ccccc2)CC1 |  | 11.6 µM (active) | 13.1 µM (active) | 
14 | N#CC1(NC(=O)COC(=O)c2cc([N+](=O)[O-])ccc2N2CCOCC2)CCCCC1 |  | 3.79 µM (active) | 2.59 µM (active) | 
15 | Cc1ccnc(NC(=O)c2sc3ccccc3c2Cl)c1 |  |  |  | AC50 (HEK293): 1.46 µM (active)
16 | COc1ccc(N2CCCn3c2nc2c3c(=O)n(Cc3ccc(C)cc3)c(=O)n2C)c(OC)c1 | > 50 µM (inactive) |  |  | 
